The experiment concerns normal Wistar rats. As to the kind of experiment: Pancreatic insulin content in normal rats treated with TGF-α and gastrin. The format is in vivo, rat. The conditions noted are these: i.p. 0.8 μg/day each for 10 days, n=5, mean +/− SEM. The procedure: Animals. Mice, FVB and CD strain, were obtained from Taconic Farms, Inc., Germantown, N.Y. The TGF-α transgenic line MT-42 used, which expresses high levels of TGF-α from a metallothionein promoter, is described in Jhappan et al, Cell, 61:1137-1146 (1990). Normal Wistar and Zucker rats were allowed normal chow ad libidum with free access to water and were acclimatized for one week prior to initiation of each study. Freshly prepared streptozotocin at a dose of 80 mg/kg body weight was administered by I.V. five to seven days after induction of diabetes, the rats were randomly allocated into groups for subsequent treatment. Hormones, TGF-α and rat gastrin were reconstituted in sterile normal saline containing 0.1% BSA. […]
At the end of the study period (10 days), all animals were sacrificed and samples of pancreas taken as follows: five biopsy specimens (1-2 mg) of pancreatic tissue were taken from separate representative sites in each rat pancreas and immediately snap frozen in liquid nitrogen for analysis of insulin content. […] Pancreatic insulin content values were corrected according to protein content and finally expressed as μg insulin/mg pancreatic protein. All values calculated as mean +/− SEM and statistical significance evaluated using Student's 2-sample t-test.

Marks after values point to notes of the source that are not given here.

Take “TGF-α: recombinant Human TGF-α, an EGF receptor ligand, reconstituted in sterile saline containing 0.1% BSA”: the “Pancreatic Insulin Content” value is on record as 30.4 +/− 7.4* μg insulin/mg protein.

Source of the values: patent US6558952B1, “Treatment for diabetes” (Waratah Pharmaceuticals, Inc., priority 1992, dated 2003).
